Here are results for 5 compounds from BindingDB's records for doi:10.1021/acschembio.5b00514 (Technische Universität München, 2015).

Usually IC50 stands for the concentration that gives 50% inhibition. Read a high IC50 as weaker potency in that assay.

Common to all, as to experiment: Activity-based Protein Profiling (ABPP)
Holding throughout (conditions): pH 7.4; 37 °C

The target in experiment [1] is T1, Rhomboid protease GlpG (Haemophilus influenzae, UniProt A0A2R3FW87).
T1 sequence (A0A2R3FW87 whole entry): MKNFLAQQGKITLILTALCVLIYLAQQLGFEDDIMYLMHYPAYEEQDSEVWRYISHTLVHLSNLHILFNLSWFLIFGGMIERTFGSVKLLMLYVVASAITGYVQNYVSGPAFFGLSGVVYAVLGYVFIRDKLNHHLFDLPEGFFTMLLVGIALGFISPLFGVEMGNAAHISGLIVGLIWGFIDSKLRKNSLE
The text has this:
(§1) We selected several inhibitor structures and determined their apparent IC50 by competitive ABPP.

Experiment [2] deals with T2, AN1-type domain-containing protein (Archaeoglobus fulgidus (strain ATCC 49558 / DSM 4304 / JCM 9628 / NBRC 100126 / VC-16), UniProt O29251).
T2 sequence (O29251 whole entry): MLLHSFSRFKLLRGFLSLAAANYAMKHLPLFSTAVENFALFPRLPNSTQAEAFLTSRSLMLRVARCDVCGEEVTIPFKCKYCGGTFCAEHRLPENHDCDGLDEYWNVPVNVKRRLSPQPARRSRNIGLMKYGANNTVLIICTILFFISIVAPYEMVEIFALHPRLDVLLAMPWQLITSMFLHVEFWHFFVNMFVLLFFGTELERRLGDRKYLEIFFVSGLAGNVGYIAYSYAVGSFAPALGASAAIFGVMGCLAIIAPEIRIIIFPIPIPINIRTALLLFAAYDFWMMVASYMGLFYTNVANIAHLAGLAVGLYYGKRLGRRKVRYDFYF
Source text: as §1

Experiment [3] has as its target T3, Rhomboid domain-containing protein (Aquifex aeolicus (strain VF5), UniProt O67346).
T3 sequence (O67346 whole entry): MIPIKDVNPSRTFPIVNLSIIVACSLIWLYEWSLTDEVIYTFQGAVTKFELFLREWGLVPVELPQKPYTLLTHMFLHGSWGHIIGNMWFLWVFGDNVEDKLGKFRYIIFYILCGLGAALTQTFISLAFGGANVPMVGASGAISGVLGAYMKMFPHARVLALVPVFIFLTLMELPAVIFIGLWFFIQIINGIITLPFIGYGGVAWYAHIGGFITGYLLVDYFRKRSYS
Source text: as §1

In experiment [4] the target is T4, Rhomboid-related protein 3 (Mus musculus, UniProt P58873).
T4 sequence (P58873 whole entry): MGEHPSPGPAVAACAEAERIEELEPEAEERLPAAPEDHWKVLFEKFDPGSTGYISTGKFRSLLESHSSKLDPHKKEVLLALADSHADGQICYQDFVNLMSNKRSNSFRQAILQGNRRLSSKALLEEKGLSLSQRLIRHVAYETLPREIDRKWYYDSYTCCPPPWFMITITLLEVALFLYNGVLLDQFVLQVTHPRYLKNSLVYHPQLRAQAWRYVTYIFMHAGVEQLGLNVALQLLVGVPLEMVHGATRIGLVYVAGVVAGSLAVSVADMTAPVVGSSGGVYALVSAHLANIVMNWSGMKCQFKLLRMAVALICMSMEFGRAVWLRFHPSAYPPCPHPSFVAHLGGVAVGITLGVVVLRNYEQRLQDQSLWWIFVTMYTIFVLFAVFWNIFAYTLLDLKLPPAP
Source text: as §1

Experiment [5] deals with T5, Rhomboid-related protein 1 (Mus musculus, UniProt Q8VC82).
T5 sequence (Q8VC82 whole entry): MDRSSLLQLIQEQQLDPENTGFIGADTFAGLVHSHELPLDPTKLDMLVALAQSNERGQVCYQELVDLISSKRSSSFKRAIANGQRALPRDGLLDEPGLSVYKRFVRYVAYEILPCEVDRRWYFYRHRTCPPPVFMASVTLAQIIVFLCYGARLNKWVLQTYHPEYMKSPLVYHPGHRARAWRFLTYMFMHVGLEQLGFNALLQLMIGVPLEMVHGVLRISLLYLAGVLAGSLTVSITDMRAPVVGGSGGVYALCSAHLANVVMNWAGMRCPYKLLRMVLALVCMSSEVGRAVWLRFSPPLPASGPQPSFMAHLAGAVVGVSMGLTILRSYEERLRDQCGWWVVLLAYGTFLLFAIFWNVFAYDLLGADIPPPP
Source text: as §1

Another experiment has as its target T6, GlpG protein (Vibrio cholerae, UniProt Q9KVP2).
T6 sequence (Q9KVP2 whole entry): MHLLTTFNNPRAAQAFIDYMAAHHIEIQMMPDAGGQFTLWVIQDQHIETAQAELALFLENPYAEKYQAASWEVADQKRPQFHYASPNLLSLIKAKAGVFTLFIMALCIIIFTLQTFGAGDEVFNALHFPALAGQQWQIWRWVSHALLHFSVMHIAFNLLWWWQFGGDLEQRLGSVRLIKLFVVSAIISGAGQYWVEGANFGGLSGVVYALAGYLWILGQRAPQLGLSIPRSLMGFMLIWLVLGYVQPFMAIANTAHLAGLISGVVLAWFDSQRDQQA
Source text: as §1

For experiment [6], the target named is T7, Rhomboid domain-containing protein (Pyrococcus horikoshii (strain ATCC 700860 / DSM 12428 / JCM 9974 / NBRC 100139 / OT-3), UniProt O59166).
T7 sequence (O59166 whole entry): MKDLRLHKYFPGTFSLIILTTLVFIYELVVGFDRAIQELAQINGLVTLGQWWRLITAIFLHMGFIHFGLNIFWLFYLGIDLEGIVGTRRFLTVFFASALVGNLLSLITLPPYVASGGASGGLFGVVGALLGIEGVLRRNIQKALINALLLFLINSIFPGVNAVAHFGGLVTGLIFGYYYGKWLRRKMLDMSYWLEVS
Source text: as §1

Experiment [7] deals with Rhomboid protease GluP [F193S,L370F,L379S,R499W] (Bacillus subtilis (strain 168), UniProt P54493, F193S/L370F/L379S/R499W).
Source text: as §1

Experiment [8] concerns the target T8, Rhomboid domain-containing protein (Thermotoga maritima (strain ATCC 43589 / DSM 3109 / JCM 10099 / NBRC 100826 / MSB8), UniProt Q9WZ53).
T8 sequence (Q9WZ53 whole entry): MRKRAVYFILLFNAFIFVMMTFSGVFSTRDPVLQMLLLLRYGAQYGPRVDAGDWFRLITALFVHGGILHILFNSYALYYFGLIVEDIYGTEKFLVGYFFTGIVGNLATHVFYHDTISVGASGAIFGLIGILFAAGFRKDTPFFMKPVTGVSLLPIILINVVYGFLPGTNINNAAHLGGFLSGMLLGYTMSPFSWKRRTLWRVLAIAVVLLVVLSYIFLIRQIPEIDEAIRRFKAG
Source text: as §1

Another experiment has as its target T9, Rhomboid protease AarA (Providencia stuartii, UniProt P46116).
T9 sequence (P46116 whole entry): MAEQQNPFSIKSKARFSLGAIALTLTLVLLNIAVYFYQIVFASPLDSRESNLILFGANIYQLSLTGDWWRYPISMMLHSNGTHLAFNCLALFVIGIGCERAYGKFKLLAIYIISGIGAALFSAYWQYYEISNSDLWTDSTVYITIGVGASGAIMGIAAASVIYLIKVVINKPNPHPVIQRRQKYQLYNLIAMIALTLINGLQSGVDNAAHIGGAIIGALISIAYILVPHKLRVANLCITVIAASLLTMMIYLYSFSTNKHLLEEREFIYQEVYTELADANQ
Source text: as §1

The target of experiment [9] is T10, Rhomboid protease GlpG (Escherichia coli (strain K12), UniProt P09391).
T10 sequence (P09391 whole entry): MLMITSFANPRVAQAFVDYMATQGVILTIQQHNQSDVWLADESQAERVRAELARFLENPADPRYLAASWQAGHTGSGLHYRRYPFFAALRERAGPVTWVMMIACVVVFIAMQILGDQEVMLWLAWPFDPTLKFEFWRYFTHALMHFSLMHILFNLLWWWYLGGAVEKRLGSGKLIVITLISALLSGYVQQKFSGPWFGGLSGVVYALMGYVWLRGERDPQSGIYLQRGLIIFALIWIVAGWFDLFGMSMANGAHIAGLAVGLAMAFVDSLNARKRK
Source text: as §1

Rhomboid protease GluP [F193S,L370F,L379S,R499W], sequence (P54493 whole entry F192S/L370F/L379S/R499W): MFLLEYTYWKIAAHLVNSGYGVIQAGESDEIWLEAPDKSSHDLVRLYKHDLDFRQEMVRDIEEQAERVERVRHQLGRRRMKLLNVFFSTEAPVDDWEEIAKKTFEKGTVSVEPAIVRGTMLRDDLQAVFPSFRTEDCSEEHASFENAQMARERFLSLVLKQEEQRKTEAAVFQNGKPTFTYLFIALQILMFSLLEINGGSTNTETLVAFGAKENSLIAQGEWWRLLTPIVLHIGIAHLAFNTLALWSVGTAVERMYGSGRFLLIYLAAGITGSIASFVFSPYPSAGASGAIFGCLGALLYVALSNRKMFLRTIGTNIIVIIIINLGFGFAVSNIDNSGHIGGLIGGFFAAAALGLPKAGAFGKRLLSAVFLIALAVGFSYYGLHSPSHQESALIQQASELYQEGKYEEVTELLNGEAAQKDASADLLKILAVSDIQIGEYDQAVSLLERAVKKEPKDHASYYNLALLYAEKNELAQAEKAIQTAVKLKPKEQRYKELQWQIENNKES

As for `C#CCCC[C@@H]1OC(=O)[C@H]1c1cc(OC)c(OC)c(OC)c1` [(4S)‐4‐(pent‐4‐yn‐1‐yl)‐3‐(3,4,5‐trimethoxyphenyl)oxetan‐2‐one (45)], the IC50 on Rhomboid protease GlpG [1] was found to be 65 µM; in experiment [2], 5 µM.
Consider `O=c1oc(OCCCCCc2ccccc2)c(Cl)c2ccc([N+](=O)[O-])cc12` [4‐Chloro‐7‐nitro‐3‐[(5‐phenylpentyl)oxy]isochromen‐1‐one (21)], for which the IC50 in experiment [3] came to 1.7 µM; at Rhomboid protease GlpG [1], 4.6 µM; in experiment [4] it was 24 µM; in [5], 39 µM; against GlpG protein, 76 µM; in experiment [6], 25 µM. Moreover, the IC50 in [7] stood at 25 µM; in experiment [8] it was 28 µM; against Rhomboid protease AarA it was 10 µM.
Regarding `C#CCCC[C@@H]1OC(=O)[C@H]1CCCC` [(4S)‐3‐butyl‐4‐(pent‐4‐yn‐1‐yl)oxetan‐2‐one (48)], the IC50 against Rhomboid protease GlpG [9] stood at 44 µM; in [8] it was 48 µM.
Compound `C#CCCC[C@@H]1OC(=O)[C@H]1CCCCC` [(4S)‐4‐(pent‐4‐yn‐1‐yl)‐3‐pentyloxetan‐2‐one (47)] displayed an IC50 in experiment [8] of 27 µM.
Consider `O=c1oc(Cl)c(Cl)c2ccccc12`, for which the IC50 worked out at 1.1 µM in experiment [3]; 0.66 µM against Rhomboid protease GlpG [1]; 8.1 µM in [2]; 70 µM in experiment [4]; 28 µM in experiment [5]; 27 µM on GlpG protein. Moreover, the IC50 in experiment [6] is 16 µM; against Rhomboid protease GlpG [9], 19 µM; in experiment [7] it was 4.1 µM; in [8] it was 1 µM; against Rhomboid protease AarA, 10 µM.
